Measurements reported in publication PMC5540273, “Progress towards a public chemogenomic set for protein kinases and a call for contributions” (PLoS ONE, 2017).

Experiments:
Assay in all cases: KINOMEscan competition binding
[1] = biological target: CHEK2 (Homo sapiens, UniProt O96017); conditions: read-out: %Inh CHEK2
[2] = biological target: FER (Homo sapiens, UniProt P16591); conditions: read-out: %Inh FER
[3] = biological target: CAMK2D (Homo sapiens, UniProt Q13557); conditions: read-out: %Inh CAMK2D
Sequence of CAMK2D (Q13557 whole entry): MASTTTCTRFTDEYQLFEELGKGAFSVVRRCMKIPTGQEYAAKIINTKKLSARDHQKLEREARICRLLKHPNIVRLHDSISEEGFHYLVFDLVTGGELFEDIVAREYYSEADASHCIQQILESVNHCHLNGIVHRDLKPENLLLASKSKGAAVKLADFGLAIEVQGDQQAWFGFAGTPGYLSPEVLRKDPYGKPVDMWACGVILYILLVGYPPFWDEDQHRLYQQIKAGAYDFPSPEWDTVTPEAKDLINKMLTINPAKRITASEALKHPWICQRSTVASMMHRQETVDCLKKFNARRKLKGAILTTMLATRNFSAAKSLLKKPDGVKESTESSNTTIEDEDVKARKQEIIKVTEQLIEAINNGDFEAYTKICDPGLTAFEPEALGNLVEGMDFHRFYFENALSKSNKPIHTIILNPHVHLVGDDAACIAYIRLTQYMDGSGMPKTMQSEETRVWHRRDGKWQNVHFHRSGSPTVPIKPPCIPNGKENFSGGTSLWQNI

[4] = biological target: T1, EPHB4 (Homo sapiens, UniProt P54760); conditions: read-out: %Inh EPHB4
T1 sequence (P54760 16-987): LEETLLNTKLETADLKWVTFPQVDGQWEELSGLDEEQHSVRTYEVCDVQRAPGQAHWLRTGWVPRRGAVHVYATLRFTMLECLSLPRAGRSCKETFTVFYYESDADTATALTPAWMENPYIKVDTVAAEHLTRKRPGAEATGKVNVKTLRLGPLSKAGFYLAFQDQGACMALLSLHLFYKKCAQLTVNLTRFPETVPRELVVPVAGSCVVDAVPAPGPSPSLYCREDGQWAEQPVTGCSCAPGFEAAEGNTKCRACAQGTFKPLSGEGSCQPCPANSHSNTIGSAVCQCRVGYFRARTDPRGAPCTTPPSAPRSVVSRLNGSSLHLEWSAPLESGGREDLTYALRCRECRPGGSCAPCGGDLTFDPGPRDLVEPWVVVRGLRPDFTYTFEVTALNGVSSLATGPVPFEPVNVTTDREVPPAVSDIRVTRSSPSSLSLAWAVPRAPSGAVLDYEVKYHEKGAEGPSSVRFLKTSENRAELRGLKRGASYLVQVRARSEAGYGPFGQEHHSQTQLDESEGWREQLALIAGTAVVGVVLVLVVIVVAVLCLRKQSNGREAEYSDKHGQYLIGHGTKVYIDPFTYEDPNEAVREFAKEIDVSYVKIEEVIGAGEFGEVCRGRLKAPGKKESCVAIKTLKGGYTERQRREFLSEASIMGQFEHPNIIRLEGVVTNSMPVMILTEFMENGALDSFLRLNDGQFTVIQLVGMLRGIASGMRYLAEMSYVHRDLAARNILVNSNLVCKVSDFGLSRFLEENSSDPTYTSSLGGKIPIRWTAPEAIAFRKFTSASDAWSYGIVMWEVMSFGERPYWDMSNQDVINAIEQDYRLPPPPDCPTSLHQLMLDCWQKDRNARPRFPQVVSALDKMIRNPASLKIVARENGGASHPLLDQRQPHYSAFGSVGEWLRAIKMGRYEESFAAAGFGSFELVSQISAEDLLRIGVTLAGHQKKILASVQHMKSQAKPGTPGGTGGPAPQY

[5] = biological target: T2, BMPR2 (Homo sapiens, UniProt Q13873); conditions: read-out: %Inh BMPR2
T2 sequence (Q13873 27-1038): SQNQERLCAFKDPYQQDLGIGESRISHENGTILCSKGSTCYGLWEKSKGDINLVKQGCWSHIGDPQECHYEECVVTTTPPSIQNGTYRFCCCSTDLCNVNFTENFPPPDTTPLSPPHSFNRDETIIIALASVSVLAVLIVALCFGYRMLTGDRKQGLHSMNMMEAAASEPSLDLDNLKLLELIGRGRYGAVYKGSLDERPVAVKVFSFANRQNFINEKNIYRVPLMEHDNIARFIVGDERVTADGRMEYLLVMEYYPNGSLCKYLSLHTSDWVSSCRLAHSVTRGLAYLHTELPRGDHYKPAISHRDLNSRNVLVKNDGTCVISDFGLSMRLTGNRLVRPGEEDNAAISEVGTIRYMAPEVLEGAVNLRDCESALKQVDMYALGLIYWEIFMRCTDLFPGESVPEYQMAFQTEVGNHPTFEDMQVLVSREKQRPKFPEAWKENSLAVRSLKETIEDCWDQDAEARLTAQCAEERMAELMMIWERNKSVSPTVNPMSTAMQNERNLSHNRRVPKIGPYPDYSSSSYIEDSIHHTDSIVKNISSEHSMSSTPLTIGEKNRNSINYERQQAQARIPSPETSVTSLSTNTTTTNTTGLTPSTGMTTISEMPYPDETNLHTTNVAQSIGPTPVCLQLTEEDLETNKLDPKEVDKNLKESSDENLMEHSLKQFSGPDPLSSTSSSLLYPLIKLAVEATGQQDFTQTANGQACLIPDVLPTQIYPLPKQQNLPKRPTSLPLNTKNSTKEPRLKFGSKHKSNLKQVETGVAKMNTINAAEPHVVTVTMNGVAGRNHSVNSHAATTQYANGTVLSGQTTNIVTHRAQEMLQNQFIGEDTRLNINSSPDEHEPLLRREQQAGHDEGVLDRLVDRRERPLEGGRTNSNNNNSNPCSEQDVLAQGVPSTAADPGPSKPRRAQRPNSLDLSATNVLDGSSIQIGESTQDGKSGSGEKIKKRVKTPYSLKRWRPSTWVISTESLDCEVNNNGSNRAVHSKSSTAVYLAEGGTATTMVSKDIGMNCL

[6] = biological target: CSF1R (Homo sapiens, UniProt P07333); conditions: read-out: %Inh CSF1R
Sequence of CSF1R (P07333 20-972): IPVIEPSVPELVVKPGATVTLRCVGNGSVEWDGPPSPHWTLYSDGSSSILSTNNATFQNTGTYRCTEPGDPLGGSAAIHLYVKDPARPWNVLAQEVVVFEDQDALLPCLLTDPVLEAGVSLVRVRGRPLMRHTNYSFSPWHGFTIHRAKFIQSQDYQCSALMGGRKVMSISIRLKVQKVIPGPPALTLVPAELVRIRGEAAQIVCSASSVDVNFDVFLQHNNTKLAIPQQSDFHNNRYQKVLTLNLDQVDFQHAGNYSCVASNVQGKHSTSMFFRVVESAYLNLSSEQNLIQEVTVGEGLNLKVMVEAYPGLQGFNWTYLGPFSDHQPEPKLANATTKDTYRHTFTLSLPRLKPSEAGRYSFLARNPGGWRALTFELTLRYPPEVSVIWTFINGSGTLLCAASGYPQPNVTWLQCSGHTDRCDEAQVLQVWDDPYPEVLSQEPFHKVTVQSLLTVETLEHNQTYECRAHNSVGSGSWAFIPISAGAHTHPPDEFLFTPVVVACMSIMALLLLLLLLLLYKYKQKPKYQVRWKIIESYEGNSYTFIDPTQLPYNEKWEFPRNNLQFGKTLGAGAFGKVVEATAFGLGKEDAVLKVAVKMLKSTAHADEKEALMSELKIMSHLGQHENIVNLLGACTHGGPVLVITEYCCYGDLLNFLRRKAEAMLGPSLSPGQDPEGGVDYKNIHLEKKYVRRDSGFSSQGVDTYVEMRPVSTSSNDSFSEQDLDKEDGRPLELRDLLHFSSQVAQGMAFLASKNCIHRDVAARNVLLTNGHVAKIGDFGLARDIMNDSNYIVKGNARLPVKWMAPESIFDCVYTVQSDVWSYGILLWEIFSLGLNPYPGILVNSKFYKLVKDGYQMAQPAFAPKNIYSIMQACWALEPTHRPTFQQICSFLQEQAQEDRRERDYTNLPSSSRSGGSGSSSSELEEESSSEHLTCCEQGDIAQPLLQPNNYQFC

[7] = biological target: EPHA2 (Homo sapiens, UniProt P29317); conditions: read-out: %Inh EPHA2
Sequence of EPHA2 (P29317 24-976): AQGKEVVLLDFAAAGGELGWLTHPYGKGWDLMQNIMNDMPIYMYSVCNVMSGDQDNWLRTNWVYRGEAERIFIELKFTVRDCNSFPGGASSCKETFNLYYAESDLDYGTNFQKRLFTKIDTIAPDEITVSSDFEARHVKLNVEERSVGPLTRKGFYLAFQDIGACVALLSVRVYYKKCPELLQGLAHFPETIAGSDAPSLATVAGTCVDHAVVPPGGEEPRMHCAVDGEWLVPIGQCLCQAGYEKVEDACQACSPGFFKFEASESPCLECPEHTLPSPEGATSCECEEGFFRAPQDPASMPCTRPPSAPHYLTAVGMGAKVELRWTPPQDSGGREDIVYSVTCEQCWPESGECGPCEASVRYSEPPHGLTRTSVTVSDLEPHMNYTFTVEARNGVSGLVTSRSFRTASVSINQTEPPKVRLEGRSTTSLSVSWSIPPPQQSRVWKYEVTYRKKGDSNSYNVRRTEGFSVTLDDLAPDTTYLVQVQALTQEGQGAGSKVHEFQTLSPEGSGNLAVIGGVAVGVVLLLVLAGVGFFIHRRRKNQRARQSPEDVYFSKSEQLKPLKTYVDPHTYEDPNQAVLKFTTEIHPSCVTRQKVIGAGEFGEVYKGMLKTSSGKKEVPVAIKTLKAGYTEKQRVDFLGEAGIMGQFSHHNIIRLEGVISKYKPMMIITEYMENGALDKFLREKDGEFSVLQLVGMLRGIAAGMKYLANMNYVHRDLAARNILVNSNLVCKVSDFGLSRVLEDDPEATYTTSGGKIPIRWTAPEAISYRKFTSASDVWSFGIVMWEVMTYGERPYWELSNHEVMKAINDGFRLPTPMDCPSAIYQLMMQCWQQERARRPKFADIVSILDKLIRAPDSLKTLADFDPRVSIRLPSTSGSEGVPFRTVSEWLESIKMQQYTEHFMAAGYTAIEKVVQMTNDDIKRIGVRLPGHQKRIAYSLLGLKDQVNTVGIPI

[8] = biological target: BUB1 (Homo sapiens, UniProt O43683); conditions: read-out: %Inh BUB1
Sequence of BUB1 (O43683 whole entry): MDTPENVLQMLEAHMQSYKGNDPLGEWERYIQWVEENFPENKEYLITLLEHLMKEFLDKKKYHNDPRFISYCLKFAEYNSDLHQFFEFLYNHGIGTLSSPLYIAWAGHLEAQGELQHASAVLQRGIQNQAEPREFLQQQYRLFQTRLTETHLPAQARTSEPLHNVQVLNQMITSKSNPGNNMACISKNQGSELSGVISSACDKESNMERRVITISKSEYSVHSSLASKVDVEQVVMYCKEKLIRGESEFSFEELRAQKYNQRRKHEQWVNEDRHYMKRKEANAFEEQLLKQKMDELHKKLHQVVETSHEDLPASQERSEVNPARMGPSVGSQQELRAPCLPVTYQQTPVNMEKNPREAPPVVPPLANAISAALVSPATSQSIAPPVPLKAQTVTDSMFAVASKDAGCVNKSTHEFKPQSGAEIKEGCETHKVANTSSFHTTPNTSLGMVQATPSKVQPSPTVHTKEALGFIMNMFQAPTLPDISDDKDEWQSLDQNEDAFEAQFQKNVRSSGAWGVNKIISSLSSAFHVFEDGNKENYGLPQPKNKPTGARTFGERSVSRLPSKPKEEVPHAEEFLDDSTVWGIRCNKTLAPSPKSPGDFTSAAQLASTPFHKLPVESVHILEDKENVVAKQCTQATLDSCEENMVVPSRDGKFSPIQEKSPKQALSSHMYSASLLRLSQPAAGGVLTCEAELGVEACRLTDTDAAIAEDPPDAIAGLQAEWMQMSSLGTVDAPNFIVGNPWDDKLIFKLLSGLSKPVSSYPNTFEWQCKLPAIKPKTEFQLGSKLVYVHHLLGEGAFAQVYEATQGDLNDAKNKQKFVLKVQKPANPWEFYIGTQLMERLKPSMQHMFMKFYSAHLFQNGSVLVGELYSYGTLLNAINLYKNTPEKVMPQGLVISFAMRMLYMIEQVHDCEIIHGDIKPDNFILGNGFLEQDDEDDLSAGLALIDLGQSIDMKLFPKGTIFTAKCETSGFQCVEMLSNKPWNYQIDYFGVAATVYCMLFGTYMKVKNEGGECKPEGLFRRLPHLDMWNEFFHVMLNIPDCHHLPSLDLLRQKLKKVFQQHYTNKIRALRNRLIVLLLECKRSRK

Sequence of FER (P16591 whole entry): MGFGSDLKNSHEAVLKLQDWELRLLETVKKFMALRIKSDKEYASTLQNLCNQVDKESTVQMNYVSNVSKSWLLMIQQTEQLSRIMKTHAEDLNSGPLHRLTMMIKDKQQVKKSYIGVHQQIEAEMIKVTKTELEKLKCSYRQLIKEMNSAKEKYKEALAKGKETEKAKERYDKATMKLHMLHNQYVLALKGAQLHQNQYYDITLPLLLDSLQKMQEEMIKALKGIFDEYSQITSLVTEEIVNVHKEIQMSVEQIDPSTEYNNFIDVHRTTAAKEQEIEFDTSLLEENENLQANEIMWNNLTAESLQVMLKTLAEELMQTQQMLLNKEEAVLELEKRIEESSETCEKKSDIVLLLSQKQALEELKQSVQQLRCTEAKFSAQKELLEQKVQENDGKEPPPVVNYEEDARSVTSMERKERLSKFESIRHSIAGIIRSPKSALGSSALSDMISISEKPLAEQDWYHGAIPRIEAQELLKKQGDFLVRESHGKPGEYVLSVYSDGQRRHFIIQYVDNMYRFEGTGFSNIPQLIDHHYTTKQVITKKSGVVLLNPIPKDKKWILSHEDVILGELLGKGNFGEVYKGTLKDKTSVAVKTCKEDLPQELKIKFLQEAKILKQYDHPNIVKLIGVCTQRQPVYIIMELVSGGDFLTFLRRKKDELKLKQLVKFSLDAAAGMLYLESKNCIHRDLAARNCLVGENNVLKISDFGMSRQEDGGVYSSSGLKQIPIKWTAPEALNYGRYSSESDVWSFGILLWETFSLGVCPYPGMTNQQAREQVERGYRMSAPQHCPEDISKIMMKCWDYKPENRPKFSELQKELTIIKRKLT
Sequence of CHEK2 (O96017 whole entry): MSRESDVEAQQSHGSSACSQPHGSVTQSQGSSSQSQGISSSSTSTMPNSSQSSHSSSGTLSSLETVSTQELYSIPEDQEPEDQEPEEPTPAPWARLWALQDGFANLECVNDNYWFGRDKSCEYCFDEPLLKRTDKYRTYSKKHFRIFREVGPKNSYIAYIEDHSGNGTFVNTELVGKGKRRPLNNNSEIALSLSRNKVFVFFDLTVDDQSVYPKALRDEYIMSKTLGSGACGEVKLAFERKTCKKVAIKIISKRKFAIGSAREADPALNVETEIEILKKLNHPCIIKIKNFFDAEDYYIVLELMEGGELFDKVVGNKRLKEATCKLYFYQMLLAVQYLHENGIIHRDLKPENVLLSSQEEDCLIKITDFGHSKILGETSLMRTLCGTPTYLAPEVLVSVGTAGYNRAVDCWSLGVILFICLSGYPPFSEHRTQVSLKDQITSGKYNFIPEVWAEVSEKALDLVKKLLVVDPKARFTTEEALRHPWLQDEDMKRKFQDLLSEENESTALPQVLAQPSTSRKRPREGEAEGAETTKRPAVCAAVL

SMILES	inhibition at 1 µM [1] [%]	inhibition at 1 µM [2] [%]	inhibition at 1 µM [3] [%]	inhibition at 1 µM [4] [%]	inhibition at 1 µM [5] [%]	inhibition at 1 µM [6] [%]	inhibition at 1 µM [7] [%]	inhibition at 1 µM [8] [%]
Cn1cc(-c2cnc(N)c3c(-c4ccc5c(c4)CCN5C(=O)Cc4ccccc4)csc23)cn1 [UNC10225012A]	0	10	0	9	6	99.9	0	0
CS(=O)(=O)Cc1ccc(Nc2nccc(-c3c(-c4cccc(NC(=O)C5CCCCC5)c4)nn4ncccc34)n2)cc1 [UNC10225159A]	0	8	0	0	24	79	51	98.7
Cc1ccc(NC(=O)Nc2cccc(C(F)(F)F)c2)cc1 [UNC10225187A]	0	0	8	0	1	0	0	0
COc1cccc(OC)c1C(=O)Nc1cccc(-c2nn3ccccc3c2-c2ccnc(Nc3cccc(F)c3)n2)c1 [UNC10225310A]	0	24	0	8	0	60	11	11
O=c1cc(N2CCOCC2)nc2n(Cc3cccc(Cl)c3Cl)c(C3CC3)nn12 [UNC10225469A]	0	3	18	3	13	0	0	0
